Test results reported in patent US9718813B2, “Imidazolin-5-one derivative useful as FASN inhibitors for the treatment of cancer” (Janssen Pharmaceutica, NV, priority 2013, dated 2017).

Experiments:
[1] = target: hFASN enzyme (full length) (Homo sapiens (Human), UniProt P49327); experiment: Fatty Acid Synthase (FASN) Inhibition Scintillation Proximity Assay; format: biochemical; settings: 3H-acetyl-CoA and malonyl-CoA substrates, SPA, mean if tested more than once
Procedure: In this assay, inhibition of FASN activity is measured using ^3H-acetyl-CoA and malonyl-CoA as substrates. ^3H-Acetyl CoA is converted to ^3H-palmitate through a series of reactions by the FASN protein, which contains 7 functional domains and carries out 7 enzymatic reactions to ultimately produce ^3H-palmitate. The assay principle is based upon the fact that ^3H-acetyl-CoA is hydrophilic and the end product, ^3H-palmitate is hydrophobic.
10 μL assay buffer (100 mM KH2PO4 pH 7.5, 1 mM DTT) (20 μL in blanks) was added to a 384-well white Opti Plate plate (Perkin Elmer). 0.9 μL test compound (at concentrations of 30 μM, 10 μM, 3 μM, 1 μM, 0.30 μM, 0.10 μM, 0.03 μM and 0.01 μM)/DMSO and 10 μL hFASN enzyme (full length, 300 ng, purified in house) or 10 μL assay buffer was added to the wells. […] The reaction was stopped by adding 20 μL Streptavidin coupled imaging beads (25 mg/ml). After incubation for 30 minutes at room temperature in the dark, the 384 well plate was centrifuged at 1500 rpm for 3 minutes and was measured after at least 24 hrs by the LEADseeker™, measuring emission using a 610±20 nm pass filter.
(§1) Raw data generated by the instrument were normalized to % Controlmin values, which were calculated as: % Controlmin=100*(x−mLC)/(mHC−mLC)
(§2) where mLC and mHC were the means of the low control wells and high control wells on the plate, after manual exclusion of outliers. A plot of Controlmin versus test compound concentration was fitted to a 4-parameter logistic curve using a non-linear least squares regression method.

[2] = target: FASN Keto-reductase Domain (hFASN enzyme, full length) (Homo sapiens (Human), UniProt P49327); experiment: Fatty Acid Synthase Keto-reductase Domain (FASN KR) Inhibition; format: biochemical; settings: NADPH oxidation at 340 nm, ethyl acetoacetate substrate
Procedure: After 20 minutes incubation at room temperature the plate was measured again (T2).
The decrease in absorbance was calculated as (Absorbance before incubation T1)−(Absorbance following incubation T2).
as §1, §2

Sequence of hFASN enzyme (full length) (P49327 whole entry, the tested form may be a part): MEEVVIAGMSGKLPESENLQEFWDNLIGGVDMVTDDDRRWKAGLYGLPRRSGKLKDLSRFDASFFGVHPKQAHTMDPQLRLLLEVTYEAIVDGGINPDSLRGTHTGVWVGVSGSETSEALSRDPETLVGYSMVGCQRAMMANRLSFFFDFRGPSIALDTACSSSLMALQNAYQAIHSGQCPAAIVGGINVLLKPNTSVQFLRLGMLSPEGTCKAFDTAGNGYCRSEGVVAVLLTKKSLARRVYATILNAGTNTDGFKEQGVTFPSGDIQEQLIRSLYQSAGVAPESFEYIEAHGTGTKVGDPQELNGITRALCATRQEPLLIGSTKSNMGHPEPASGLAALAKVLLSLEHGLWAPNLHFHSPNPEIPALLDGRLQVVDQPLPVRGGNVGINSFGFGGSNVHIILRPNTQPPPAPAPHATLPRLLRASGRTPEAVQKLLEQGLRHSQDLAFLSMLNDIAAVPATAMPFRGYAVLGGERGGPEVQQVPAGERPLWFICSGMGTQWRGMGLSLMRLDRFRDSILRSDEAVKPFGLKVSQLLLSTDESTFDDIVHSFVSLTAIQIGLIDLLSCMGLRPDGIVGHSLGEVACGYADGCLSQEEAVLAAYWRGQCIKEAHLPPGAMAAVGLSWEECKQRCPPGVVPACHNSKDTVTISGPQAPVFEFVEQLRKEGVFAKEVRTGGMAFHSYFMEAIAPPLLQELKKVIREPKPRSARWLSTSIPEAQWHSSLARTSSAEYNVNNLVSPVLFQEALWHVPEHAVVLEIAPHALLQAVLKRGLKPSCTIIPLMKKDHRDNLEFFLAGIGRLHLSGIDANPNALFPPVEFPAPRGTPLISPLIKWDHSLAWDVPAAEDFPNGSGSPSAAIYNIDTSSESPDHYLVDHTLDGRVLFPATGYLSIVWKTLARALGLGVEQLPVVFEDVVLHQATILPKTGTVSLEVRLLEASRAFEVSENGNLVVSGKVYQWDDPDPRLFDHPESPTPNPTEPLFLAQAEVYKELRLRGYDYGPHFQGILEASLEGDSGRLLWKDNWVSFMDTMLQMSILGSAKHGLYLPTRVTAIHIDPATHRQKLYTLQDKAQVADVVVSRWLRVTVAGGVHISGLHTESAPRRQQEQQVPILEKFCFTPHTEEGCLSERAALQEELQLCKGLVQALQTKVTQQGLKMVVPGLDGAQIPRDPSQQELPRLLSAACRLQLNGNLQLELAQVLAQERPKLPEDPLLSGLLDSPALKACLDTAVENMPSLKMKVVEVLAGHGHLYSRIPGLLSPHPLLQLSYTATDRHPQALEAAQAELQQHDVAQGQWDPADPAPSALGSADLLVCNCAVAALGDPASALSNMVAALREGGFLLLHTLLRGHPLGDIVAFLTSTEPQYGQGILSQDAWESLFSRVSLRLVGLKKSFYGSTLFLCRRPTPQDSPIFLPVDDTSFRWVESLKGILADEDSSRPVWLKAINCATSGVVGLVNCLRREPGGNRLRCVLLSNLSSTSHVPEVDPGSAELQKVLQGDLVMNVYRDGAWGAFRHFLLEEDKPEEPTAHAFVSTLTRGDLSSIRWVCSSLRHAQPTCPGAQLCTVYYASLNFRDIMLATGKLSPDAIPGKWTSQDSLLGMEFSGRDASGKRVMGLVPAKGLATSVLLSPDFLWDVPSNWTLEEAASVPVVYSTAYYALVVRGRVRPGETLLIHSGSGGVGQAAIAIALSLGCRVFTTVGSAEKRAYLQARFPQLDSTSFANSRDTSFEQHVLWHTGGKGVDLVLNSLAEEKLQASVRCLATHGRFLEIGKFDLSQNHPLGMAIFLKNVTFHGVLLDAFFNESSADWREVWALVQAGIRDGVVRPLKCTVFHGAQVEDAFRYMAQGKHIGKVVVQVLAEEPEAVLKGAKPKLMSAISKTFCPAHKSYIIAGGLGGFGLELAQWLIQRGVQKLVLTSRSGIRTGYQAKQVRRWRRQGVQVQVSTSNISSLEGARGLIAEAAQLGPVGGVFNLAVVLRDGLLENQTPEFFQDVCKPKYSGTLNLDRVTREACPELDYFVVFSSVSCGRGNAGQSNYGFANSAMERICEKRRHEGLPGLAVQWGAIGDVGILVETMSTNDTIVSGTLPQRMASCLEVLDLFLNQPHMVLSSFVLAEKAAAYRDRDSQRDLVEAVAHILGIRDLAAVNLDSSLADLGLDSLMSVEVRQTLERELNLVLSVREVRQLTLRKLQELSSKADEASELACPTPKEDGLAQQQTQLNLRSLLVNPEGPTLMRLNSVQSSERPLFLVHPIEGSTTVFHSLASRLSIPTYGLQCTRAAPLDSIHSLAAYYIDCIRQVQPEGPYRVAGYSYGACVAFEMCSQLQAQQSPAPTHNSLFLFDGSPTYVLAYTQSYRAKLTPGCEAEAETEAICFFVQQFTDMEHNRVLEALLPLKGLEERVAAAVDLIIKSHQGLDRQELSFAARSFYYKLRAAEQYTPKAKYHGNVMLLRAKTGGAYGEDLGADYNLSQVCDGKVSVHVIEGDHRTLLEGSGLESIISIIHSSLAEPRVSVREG
Sequence of FASN Keto-reductase Domain (hFASN enzyme, full length) (P49327 whole entry, the tested form may be a part): as above

SMILES	Human FASN pIC50 [1]	FASN Keto-reductase Domain pIC50 [2]	IC50 ([1]; read-out: Human FASN pIC50 (converted))	IC50 ([2]; read-out: FASN Keto-reductase Domain pIC50 (converted))
Cc1cc(-c2ccc3cc(F)ccc3c2)ccc1C1=NC(C)(C)C(=O)N1CC1CN(C(=O)C2(C)CC2)C1 [Compound 82, 2-(4-(6-fluoronaphthalen-2-yl)-2-methylphenyl)-4,4-dimethyl-1-((1-(1-methylcyclopropanecarbonyl)azetidin-3-yl)methyl)-1H-imidazol-5(4H)-one]	7.47	7.30		
Cn1ncc2cc(-c3ccc(C4=NC(C)(C)C(=O)N4CC4CN(C(=O)C5(O)CC5)C4)c(F)c3)ccc21 [Compound 78, 2-(2-fluoro-4-(1-methyl-1H-indazol-5-yl)phenyl)-1-((1-(1-hydroxycyclopropanecarbonyl)azetidin-3-yl)methyl)-4,4-dimethyl-1H-imidazol-5(4H)-one]	6.61	6.19		
CC1(C)N=C(c2ccc(-c3ccc4cc(F)ccc4c3)cc2)N(CC2CN(C(=O)C3CC3)C2)C1=O [Compound 29, 1-((1-(cyclopropanecarbonyl)azetidin-3-yl)methyl)-2-(4-(6-fluoronaphthalen-2-yl)phenyl)-4,4-dimethyl-1H-imidazol-5(4H)-one]	7.02	6.62		
CC1(C)N=C(c2ccc(-c3ccc4cccnc4c3)cc2F)N(CC2CN(C(=O)C3CC3)C2)C1=O [Compound 39, 1-((1-(cyclopropanecarbonyl)azetidin-3-yl)methyl)-2-(2-fluoro-4-(quinolin-7-yl)phenyl)-4,4-dimethyl-1H-imidazol-5(4H)-one]	7.05	6.81		
Cn1cc(-c2ccc(-c3ccc(C4=NC(C)(C)C(=O)N4C[C@@H]4CCN(C(=O)C5(C)CC5)C4)c(F)c3)cc2)cn1 [Compound 74, (R)-2-(3-fluoro-4′-(1-methyl-1H-pyrazol-4-yl)-[1,1′-biphenyl]-4-yl)-4,4-dimethyl-1-((1-(1-methylcyclopropanecarbonyl)pyrrolidin-3-yl)methyl)-1H-imidazol-5(4H)-one]	7.26	7.38		
CC1(C)N=C(c2ccc(-c3ccc4cncnc4c3)cc2)N(C[C@@H]2CCN(C(=O)C3CC3)C2)C1=O [Compound 42, (R)-1-((1-(cyclopropanecarbonyl)pyrrolidin-3-yl)methyl)-4,4-dimethyl-2-(4-(quinazolin-7-yl)phenyl)-1H-imidazol-5(4H)-one]	6.65	6.32		
Cc1cc(-c2ccc(-c3cnn(C)c3)cc2)ccc1C1=NC(C)(C)C(=O)N1CC1CN(C(=O)C2(C)CC2)C1 [Compound 87, 4,4-dimethyl-2-(3-methyl-4′-(1-methyl-1H-pyrazol-4-yl)-[1,1′-biphenyl]-4-yl)-1-((1-(1-methylcyclopropanecarbonyl)azetidin-3-yl)methyl)-1H-imidazol-5(4H)-one]	7.12	7.06		
CC1(C)N=C(c2ccc(-c3cccc4ncccc34)cc2F)N(C[C@@H]2CCN(C(=O)C3CC3)C2)C1=O [Compound 47, (R)-1-((1-(cyclopropanecarbonyl)pyrrolidin-3-yl)methyl)-2-(2-fluoro-4-(quinolin-5-yl)phenyl)-4,4-dimethyl-1H-imidazol-5(4H)-one]	6.78	6.52		
CC1(C)N=C(c2ccc(-c3ccc4cccc(F)c4c3)cc2F)N(CC2CN(C(=O)C3CC3)C2)C1=O [Compound 55, 1-((1-(cyclopropanecarbonyl)azetidin-3-yl)methyl)-2-(2-fluoro-4-(8-fluoronaphthalen-2-yl)phenyl)-4,4-dimethyl-1H-imidazol-5(4H)-one]	7.46	6.60		
CC1(C)N=C(c2ccc(-c3ccc4cnccc4c3)cc2)N(C[C@@H]2CCN(C(=O)C3CC3)C2)C1=O [Compound 28, (R)-1-((1-(cyclopropanecarbonyl)pyrrolidin-3-yl)methyl)-2-(4-(isoquinolin-6-yl)phenyl)-4,4-dimethyl-1H-imidazol-5(4H)-one]	7.23	7.14		
CC1(C)N=C(c2ccc(-c3ccc4occc4c3)cc2)N(C[C@@H]2CCN(C(=O)C3(F)CC3)C2)C1=O [Compound 4, (R)-2-(4-(benzofuran-5-yl)phenyl)-1-((1-(1-fluorocyclopropanecarbonyl)pyrrolidin-3-yl)methyl)-4,4-dimethyl-1H-imidazol-5(4H)-one]	6.92	6.22		
Cn1ncc2cc(-c3ccc(C4=NC(C)(C)C(=O)N4CC4CN(C(=O)C5CC5)C4)c(F)c3)ccc21 [Compound 32, 1-((1-(cyclopropanecarbonyl)azetidin-3-yl)methyl)-2-(2-fluoro-4-(1-methyl-1H-indazol-5-yl)phenyl)-4,4-dimethyl-1H-imidazol-5(4H)-one]	6.29	5.86		
CC1(c2ccccc2)N=C(c2ccc(-c3ccc4[nH]ccc4c3)cc2)N(C[C@@H]2CCN(C(=O)C3CC3)C2)C1=O (mixture of isomers) [Compound 7, (4RS)-2-(4-(1H-Indol-5-yl)phenyl)-1-(((R)-1-(cyclopropanecarbonyl)pyrrolidin-3-yl)methyl)-4-methyl-4-phenyl-1H-imidazol-5(4H)-one]			72.4 nM	129 nM
Cc1cc(-c2ccc3c(cnn3C)c2)ccc1C1=NC(C)(C)C(=O)N1CC1CN(C(=O)C2(C)CC2)C1 [Compound 77, 4,4-dimethyl-2-(2-methyl-4-(1-methyl-1H-indazol-5-yl)phenyl)-1-((1-(1-methylcyclopropanecarbonyl)azetidin-3-yl)methyl)-1H-imidazol-5(4H)-one]	6.82	6.44		
CC1(C)N=C(c2ccc(-c3ccc4cccnc4c3)cc2)N(C[C@@H]2CCN(C(=O)C3CC3)C2)C1=O [Compound 23, (R)-1-((1-(cyclopropanecarbonyl)pyrrolidin-3-yl)methyl)-4,4-dimethyl-2-(4-(quinolin-7-yl)phenyl)-1H-imidazol-5(4H)-one]	7.25	7.25		
CC1(C)N=C(c2ccc(-c3ccc4cncnc4c3)cc2F)N(C[C@@H]2CCN(C(=O)C3CC3)C2)C1=O [Compound 44, (R)-1-((1-(cyclopropanecarbonyl)pyrrolidin-3-yl)methyl)-2-(2-fluoro-4-(quinazolin-7-yl)phenyl)-4,4-dimethyl-1H-imidazol-5(4H)-one]	6.79	6.65		
Cc1cc(-c2ccc3c(c2)ncn3C)ccc1C1=NC(C)(C)C(=O)N1CC1CN(C(=O)C2(C)CC2)C1 [Compound 83, 4,4-dimethyl-2-(2-methyl-4-(1-methyl-1H-benzo[d]imidazol-5-yl)phenyl)-1-((1-(1-methylcyclopropanecarbonyl)azetidin-3-yl)methyl)-1H-imidazol-5(4H)-one]	6.99	6.76		
Cc1cc(-c2ccc3cc(F)ccc3c2)ccc1C1=NC(C)(C)C(=O)N1C[C@@H]1CCN(C(=O)C2(C)CC2)C1 [Compound 86, (R)-2-(4-(6-fluoronaphthalen-2-yl)-2-methylphenyl)-4,4-dimethyl-1-((1-(1-methylcyclopropanecarbonyl)pyrrolidin-3-yl)methyl)-1H-imidazol-5(4H)-one]	7.37	7.60		
CC1(C)N=C(c2ccc(-c3ccc4cccnc4c3)cc2)N(CC2CN(C(=O)C3CC3)C2)C1=O [Compound 24, 1-((1-(cyclopropanecarbonyl)azetidin-3-yl)methyl)-4,4-dimethyl-2-(4-(quinolin-7-yl)phenyl)-1H-imidazol-5(4H)-one]	6.69	6.45		
CC1(C)N=C(c2ccc(-c3cnc4ccccc4c3)cc2)N(C[C@@H]2CCN(C(=O)C3CC3)C2)C1=O [Compound 25, (R)-1-((1-(cyclopropanecarbonyl)pyrrolidin-3-yl)methyl)-4,4-dimethyl-2-(4-(quinolin-3-yl)phenyl)-1H-imidazol-5(4H)-one]	6.15	6.17		
